# From the supplement of paper PMC10307832
# Columns and labels:
# Assay in all cases: relative viability (nuclei count vs DMSO), 5 days (fraction); higher = more cells survive
# [1] = compound: CC1=NN=C(O1)C2=NN=C(C=C2)N3CCC(CC3)OC4=C(C=CC(=C4)F)Cl + N=C(N)NC(=N)NCCc1ccccc1 [Phenformin] (partner 250 µM)
# How it was run: (§1)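 Lung cancer cell lines were pin-tool dosed in 1536-well plates on the day after seeding, with either a lone drug or a fixed anchor-drug dose plus five library-drug doses (not always all listed) in √10 steps. Nuclei were counted on 4× images after 5 days. Relative viability is the ratio of treated-well to vehicle-well nuclei counts, with each value a median of duplicate plates.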
# Tosedostat + Tozasertib = compound: CC(C)C[C@@H](C(=O)N[C@H](C(=O)OC1CCCC1)c1ccccc1)[C@H](O)C(=O)NO [Tosedostat] + Cc1cc(Nc2cc(N3CCN(C)CC3)nc(Sc3ccc(NC(=O)C4CC4)cc3)n2)n[nH]1 [Tozasertib] (partner 0.1 µM)
# How it was run: as §1
# Tosedostat + Pemetrexed = compound: CC(C)C[C@@H](C(=O)N[C@H](C(=O)OC1CCCC1)c1ccccc1)[C@H](O)C(=O)NO [Tosedostat] + Nc1nc2[nH]cc(CCc3ccc(C(=O)N[C@@H](CCC(=O)O)C(=O)O)cc3)c2c(=O)[nH]1 [Pemetrexed] (partner 0.2 µM)
# How it was run: as §1
# Tosedostat + AZD7762 = compound: CC(C)C[C@@H](C(=O)N[C@H](C(=O)OC1CCCC1)c1ccccc1)[C@H](O)C(=O)NO [Tosedostat] + NC(=O)Nc1cc(-c2cccc(F)c2)sc1C(=O)N[C@H]1CCCNC1 [AZD7762] (partner 0.2 µM)
# How it was run: as §1
Cell Line,relative viability ([1]; first compound 0.253 µM),relative viability ([1]; first compound 0.8 µM),relative viability ([1]; first compound 2.53 µM),relative viability ([1]; first compound 8 µM),relative viability (Tosedostat + Tozasertib; first compound 0.02 µM),relative viability (Tosedostat + Tozasertib; first compound 0.06325 µM),relative viability (Tosedostat + Tozasertib; first compound 0.2 µM),relative viability (Tosedostat + Tozasertib; first compound 0.6325 µM),relative viability (Tosedostat + Tozasertib; first compound 2 µM),relative viability (Tosedostat + Pemetrexed; first compound 0.02 µM),relative viability (Tosedostat + Pemetrexed; first compound 0.06325 µM),relative viability (Tosedostat + Pemetrexed; first compound 0.2 µM),relative viability (Tosedostat + Pemetrexed; first compound 0.6325 µM),relative viability (Tosedostat + Pemetrexed; first compound 2 µM),relative viability (Tosedostat + AZD7762; first compound 0.02 µM),relative viability (Tosedostat + AZD7762; first compound 0.06325 µM),relative viability (Tosedostat + AZD7762; first compound 0.2 µM),relative viability (Tosedostat + AZD7762; first compound 0.6325 µM),relative viability (Tosedostat + AZD7762; first compound 2 µM)
201T,0.38,0.436,0.46,0.443,0.938,1.02,1.06,1.11,0.968,0.336,0.335,0.393,0.355,0.307,0.592,0.668,0.669,0.584,0.576
A549,0.158,0.0878,0.14,0.147,,,,,,,,,,,,,,,
A-427,0.285,,0.278,0.258,0.217,0.196,0.185,0.162,0.152,0.97,1.02,0.936,0.946,0.852,0.787,0.804,0.773,0.682,0.698
ABC-1,0.197,0.224,0.291,0.276,0.17,0.194,0.137,0.118,0.17,,,,,,1.2,,0.755,0.822,0.732
BEN,0.25,0.265,0.267,0.301,0.535,0.523,0.429,0.326,0.252,0.845,0.893,0.997,1.2,1.06,0.813,0.724,0.901,1.12,1.04
CAL-12T,0.585,0.519,0.488,0.416,0.366,0.313,0.345,0.279,0.301,1.19,1.3,1.24,1.26,1.02,0.703,0.577,0.593,0.678,0.629
COR-L23,0.423,0.385,0.425,0.363,0.214,0.165,0.172,0.161,0.128,0.2,0.214,0.202,0.194,0.172,,,,,
COR-L 105,0.513,0.475,0.568,0.642,0.359,0.291,0.392,0.378,0.338,1.16,0.915,1.01,0.857,0.894,,,,,
ChaGo-K-1,0.471,0.373,0.545,0.381,0.241,0.227,0.269,0.199,0.176,0.269,0.257,0.275,0.267,0.275,0.957,0.889,0.81,0.767,0.603
EKVX,0.211,0.223,0.236,0.227,0.401,0.511,0.392,0.358,0.311,0.462,0.427,0.547,0.462,0.477,0.821,0.71,0.747,0.761,0.657
EMC-BAC-2,0.594,0.479,0.495,0.517,0.281,0.27,0.265,0.242,0.187,0.453,0.463,0.582,0.626,0.655,1.09,1.02,1.1,1.07,0.859
EPLC-272H,0.315,0.279,0.309,0.294,0.7,0.172,0.16,0.124,0.107,0.47,0.269,0.306,0.241,0.142,0.248,0.232,0.267,0.153,0.192
H3255,0.372,0.316,0.354,0.398,0.575,0.717,0.643,0.534,0.656,0.56,0.628,0.625,0.611,0.638,1.04,0.919,0.953,0.81,0.746
HARA,0.306,0.211,0.334,0.266,0.111,0.129,0.0782,0.0748,0.07,0.212,0.248,0.222,0.203,0.25,0.41,0.459,0.261,0.477,0.262
HCC-15,0.441,0.396,0.427,0.428,0.571,0.415,0.43,0.274,0.346,0.234,0.221,0.213,0.243,0.249,1.25,1.17,1.29,1.31,1.15
HCC-44,0.267,0.167,0.178,0.157,1.18,0.893,0.885,0.806,0.338,0.69,0.68,0.679,0.642,0.639,1.08,1,1.03,1.06,0.965
HCC-78,0.619,0.59,0.541,0.497,0.414,0.509,0.426,0.461,0.406,0.923,1.02,0.838,0.895,0.922,0.355,0.771,0.65,0.738,0.791
HCC-366,0.286,0.285,0.309,0.288,0.113,0.113,0.0994,0.0993,0.0727,0.194,0.183,0.285,0.351,0.317,0.291,0.34,0.428,0.361,0.485
